# Assay results reported in patent US20110230481A2, “DERIVATIVES OF TETRABROMOBENZIMIDAZOLE, A PROCESS FOR THE PREPARATION THEREOF, A PHARMACEUTICAL COMPOSITION COMPRISING THE SAME, A METHOD OF USING THE SAME, A METHOD FOR MODULATING OR REGULATING SERINE/THREONINE KINASES, AND SERINE/THREONINE KINASES MODULATING AGENT” (SELVITA S.A., priority 2009, published 2011).
# How the values were obtained:
# Assay in all cases: KINOMEscan Max
# Assay type in all cases: binding
# AKT2 = AKT2 (Homo sapiens, UniProt P31751)
# AKT2, sequence (P31751 whole entry): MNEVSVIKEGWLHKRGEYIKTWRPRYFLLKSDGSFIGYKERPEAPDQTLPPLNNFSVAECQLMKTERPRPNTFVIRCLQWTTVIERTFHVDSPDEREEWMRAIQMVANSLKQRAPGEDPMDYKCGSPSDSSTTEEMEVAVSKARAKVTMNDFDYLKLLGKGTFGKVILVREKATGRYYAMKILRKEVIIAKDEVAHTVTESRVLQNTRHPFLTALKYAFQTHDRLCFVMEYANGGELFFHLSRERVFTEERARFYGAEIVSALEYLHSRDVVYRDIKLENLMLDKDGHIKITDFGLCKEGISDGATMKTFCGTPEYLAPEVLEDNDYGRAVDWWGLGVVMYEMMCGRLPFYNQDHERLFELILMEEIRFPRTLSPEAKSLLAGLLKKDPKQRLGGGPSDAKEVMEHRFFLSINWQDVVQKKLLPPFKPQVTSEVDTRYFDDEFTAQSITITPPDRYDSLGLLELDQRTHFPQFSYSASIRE
# In short: (§1)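 Binding was measured by competition: compounds were tested for their ability to displace DNA-tagged kinases from an immobilized ligand directed at the active site, with quantitative PCR of the tag as read-out.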
# TGFBR2 = target: T1, TGFBR2 (Homo sapiens, UniProt P37173)
# T1 construct: purchased Ambit Kinomescan (contract screening service)
# In short: as §1
# MEK2 = MEK2 (Homo sapiens, UniProt P36507)
# In short: as §1
# IRAK4 = target: T2, IRAK4 (Homo sapiens, UniProt Q9NWZ3); conditions: 1 μM
# T2 construct: purchased Ambit Kinomescan (contract panel)
# In short: as §1
# MAP4K3 = target: T3, MAP4K3 (Homo sapiens, UniProt Q8IVH8); conditions: 1 μM
# T3 construct: purchased Ambit (KINOMEscan Max service)
# In short: as §1
# SRMS = target: T4, SRMS (Homo sapiens, UniProt Q9H3Y6)
# T4 construct: DNA tag (qPCR read-out)
# T4 sequence (Q9H3Y6 whole entry): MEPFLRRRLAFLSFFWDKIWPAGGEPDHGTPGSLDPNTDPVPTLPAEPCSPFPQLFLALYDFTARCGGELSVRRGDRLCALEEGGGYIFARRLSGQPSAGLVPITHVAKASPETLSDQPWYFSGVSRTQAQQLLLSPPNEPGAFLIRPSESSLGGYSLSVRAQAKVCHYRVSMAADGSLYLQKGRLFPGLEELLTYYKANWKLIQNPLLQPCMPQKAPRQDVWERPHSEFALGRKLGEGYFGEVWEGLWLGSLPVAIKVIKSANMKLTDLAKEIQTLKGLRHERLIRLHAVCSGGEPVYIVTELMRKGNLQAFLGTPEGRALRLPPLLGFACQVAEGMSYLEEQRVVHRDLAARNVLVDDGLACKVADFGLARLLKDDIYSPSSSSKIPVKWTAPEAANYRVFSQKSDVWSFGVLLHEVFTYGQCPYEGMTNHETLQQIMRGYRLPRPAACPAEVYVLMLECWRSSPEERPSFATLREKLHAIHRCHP
# In short: as §1
# LRRK2(G2019S) = target: T5, LRRK2(G2019S) (Homo sapiens, UniProt Q5S007, G2019S)
# T5 construct: purchased Ambit (KINOMEscan Max service)
# In short: as §1
# [1] = target: T6, RSK4(Kin.Dom.1-N-terminal) (Homo sapiens, UniProt Q9UK32); conditions: 1 μM
# T6 construct: RSK4(Kin.Dom.1-N-terminal); DNA tag (qPCR read-out)
# T6 sequence (Q9UK32 73-330 limits assumed): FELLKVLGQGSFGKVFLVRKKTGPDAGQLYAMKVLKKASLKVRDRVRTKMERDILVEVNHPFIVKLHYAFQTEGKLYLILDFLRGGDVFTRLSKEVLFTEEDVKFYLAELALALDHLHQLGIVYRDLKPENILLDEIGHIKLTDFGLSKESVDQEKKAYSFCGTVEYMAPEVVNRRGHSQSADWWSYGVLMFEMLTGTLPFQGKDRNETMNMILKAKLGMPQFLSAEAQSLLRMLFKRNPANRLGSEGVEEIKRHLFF
# In short: as §1
# LRRK2 = LRRK2 (Homo sapiens, UniProt Q5S007)
# In short: as §1
# PRP4 = target: T7, PRP4 (Homo sapiens, UniProt Q13523)
# T7 construct: purchased Ambit (KINOMEscan Max service)
# T7 sequence (Q13523 whole entry): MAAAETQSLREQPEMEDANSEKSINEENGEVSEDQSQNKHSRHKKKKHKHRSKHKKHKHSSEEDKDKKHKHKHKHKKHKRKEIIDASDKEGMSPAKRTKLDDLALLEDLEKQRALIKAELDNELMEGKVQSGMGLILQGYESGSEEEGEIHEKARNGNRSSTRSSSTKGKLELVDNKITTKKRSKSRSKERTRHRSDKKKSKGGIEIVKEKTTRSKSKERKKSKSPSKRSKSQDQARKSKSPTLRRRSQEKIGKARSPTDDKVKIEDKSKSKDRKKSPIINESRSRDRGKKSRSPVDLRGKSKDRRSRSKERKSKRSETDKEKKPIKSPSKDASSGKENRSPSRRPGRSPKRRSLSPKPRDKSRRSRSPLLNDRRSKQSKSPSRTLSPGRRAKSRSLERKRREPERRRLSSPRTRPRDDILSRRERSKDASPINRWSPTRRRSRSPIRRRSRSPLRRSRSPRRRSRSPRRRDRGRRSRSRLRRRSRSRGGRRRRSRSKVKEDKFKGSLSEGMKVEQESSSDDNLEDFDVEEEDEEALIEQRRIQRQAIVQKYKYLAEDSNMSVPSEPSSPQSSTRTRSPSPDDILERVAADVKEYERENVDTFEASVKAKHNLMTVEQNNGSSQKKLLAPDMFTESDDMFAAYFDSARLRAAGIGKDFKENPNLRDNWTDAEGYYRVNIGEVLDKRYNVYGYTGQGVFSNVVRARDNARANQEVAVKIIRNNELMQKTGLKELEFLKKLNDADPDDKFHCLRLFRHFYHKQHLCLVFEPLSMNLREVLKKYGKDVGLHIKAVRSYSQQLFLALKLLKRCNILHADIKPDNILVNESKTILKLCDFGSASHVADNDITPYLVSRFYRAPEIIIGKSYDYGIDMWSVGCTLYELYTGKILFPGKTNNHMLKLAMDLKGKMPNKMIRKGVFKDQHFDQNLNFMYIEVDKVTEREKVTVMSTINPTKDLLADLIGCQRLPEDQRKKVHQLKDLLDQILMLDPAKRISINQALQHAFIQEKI
# In short: as §1
# PIP5K1A = PIP5K1A (Homo sapiens, UniProt Q99755)
# PIP5K1A, sequence (Q99755 whole entry): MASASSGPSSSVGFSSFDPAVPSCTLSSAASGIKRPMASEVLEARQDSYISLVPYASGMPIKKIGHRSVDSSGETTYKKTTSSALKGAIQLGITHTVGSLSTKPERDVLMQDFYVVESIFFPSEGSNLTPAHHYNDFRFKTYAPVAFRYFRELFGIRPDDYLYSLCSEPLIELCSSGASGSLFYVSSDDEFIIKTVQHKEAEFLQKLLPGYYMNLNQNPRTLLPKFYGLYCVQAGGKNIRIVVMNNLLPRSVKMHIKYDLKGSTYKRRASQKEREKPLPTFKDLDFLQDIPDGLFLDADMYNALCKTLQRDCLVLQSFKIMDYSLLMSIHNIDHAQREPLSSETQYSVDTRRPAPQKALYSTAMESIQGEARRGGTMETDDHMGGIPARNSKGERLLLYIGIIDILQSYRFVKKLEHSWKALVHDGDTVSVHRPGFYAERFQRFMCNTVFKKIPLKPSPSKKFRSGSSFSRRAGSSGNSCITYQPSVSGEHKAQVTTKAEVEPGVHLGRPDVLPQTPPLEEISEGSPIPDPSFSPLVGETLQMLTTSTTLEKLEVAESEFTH
# In short: as §1
# AURKB = AURKB (Homo sapiens, UniProt Q96GD4)
# In short: as §1
# FGFR4 = target: T8, FGFR4 (Homo sapiens, UniProt P22455)
# T8 construct: purchased Ambit (KINOMEscan Max service)
# In short: as §1
# BMPR2 = BMPR2 (Homo sapiens, UniProt Q13873); conditions: 1 μM
# BMPR2, sequence (Q13873 27-1038): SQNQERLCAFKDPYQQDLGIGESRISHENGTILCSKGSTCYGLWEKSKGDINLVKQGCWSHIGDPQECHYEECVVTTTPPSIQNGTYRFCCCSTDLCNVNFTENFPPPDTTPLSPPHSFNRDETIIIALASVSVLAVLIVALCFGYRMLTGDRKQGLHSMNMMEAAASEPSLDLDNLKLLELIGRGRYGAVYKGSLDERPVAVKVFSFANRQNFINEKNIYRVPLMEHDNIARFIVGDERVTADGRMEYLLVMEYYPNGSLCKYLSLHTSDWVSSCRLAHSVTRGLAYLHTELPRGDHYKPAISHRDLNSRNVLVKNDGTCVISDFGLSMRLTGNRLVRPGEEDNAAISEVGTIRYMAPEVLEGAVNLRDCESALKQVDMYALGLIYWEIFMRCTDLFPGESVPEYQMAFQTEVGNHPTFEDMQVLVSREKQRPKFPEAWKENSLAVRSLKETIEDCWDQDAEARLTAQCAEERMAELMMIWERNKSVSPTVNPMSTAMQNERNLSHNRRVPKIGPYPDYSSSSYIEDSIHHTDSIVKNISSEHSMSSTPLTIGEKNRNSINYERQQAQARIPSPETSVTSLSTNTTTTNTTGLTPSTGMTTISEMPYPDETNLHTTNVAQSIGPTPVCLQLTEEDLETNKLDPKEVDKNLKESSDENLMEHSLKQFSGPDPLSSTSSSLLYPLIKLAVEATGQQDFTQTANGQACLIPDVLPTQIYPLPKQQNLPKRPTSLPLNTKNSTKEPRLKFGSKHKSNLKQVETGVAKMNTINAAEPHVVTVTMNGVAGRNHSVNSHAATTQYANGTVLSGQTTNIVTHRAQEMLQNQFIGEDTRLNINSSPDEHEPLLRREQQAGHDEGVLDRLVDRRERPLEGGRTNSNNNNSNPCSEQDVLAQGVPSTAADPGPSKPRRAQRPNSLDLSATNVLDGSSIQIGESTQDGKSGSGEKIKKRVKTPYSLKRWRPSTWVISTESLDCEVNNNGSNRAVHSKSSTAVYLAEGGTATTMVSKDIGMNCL
# In short: as §1
# MST1R = MST1R (Homo sapiens, UniProt Q04912)
# In short: as §1
# BRSK1 = target: T9, BRSK1 (Homo sapiens, UniProt Q8TDC3)
# T9 construct: DNA tag (qPCR label); purchased Ambit Kinomescan (contract screening)
# In short: as §1
# CAMK2A = CAMK2A (Homo sapiens, UniProt Q9UQM7)
# In short: as §1
# [2] = target: ABL1(H396P)nonphosphorylated (Homo sapiens, UniProt P00519, H396P)
# In short: as §1
# FLT3(N841I) = target: T10, FLT3(N841I) (Homo sapiens, UniProt P36888, N841I)
# T10 construct: purchased Ambit (KINOMEscan Max service)
# In short: as §1
# CDK7 = target: T11, CDK7 (Homo sapiens, UniProt P50613)
# T11 construct: DNA tag (qPCR read-out)
# T11 sequence (P50613 whole entry): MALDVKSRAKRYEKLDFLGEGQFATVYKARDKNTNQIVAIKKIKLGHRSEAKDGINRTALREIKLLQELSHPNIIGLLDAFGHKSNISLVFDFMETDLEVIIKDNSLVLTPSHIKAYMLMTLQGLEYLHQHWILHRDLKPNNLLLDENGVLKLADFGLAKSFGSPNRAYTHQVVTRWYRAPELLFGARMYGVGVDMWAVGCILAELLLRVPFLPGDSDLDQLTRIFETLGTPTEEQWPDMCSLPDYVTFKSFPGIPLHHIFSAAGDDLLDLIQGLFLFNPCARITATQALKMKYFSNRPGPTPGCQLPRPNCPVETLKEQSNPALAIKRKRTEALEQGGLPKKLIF
# In short: as §1
# BRK = target: T12, BRK (Homo sapiens, UniProt Q13882)
# T12 construct: DNA tag (qPCR label); purchased Ambit Kinomescan (contract screening)
# T12 sequence (Q13882 whole entry): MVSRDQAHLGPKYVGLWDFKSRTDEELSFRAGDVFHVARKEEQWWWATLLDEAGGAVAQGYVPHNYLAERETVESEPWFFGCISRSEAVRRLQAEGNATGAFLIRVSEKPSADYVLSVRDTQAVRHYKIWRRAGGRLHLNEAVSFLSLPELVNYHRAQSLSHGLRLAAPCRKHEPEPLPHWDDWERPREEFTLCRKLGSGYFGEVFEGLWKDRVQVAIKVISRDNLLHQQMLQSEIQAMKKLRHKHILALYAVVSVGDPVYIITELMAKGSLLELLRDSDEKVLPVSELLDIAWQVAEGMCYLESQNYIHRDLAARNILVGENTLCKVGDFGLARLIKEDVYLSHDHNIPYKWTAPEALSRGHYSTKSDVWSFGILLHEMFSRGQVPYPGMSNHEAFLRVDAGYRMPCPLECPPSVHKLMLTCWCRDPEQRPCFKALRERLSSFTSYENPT
# In short: as §1
# MET(M1250T) = target: T13, MET(M1250T) (Homo sapiens, UniProt P08581, M1250T); conditions: 1 μM
# T13 construct: DNA tag (qPCR read-out)
# In short: as §1
# [3] = target: T14, RSK1(Kin.Dom.2-C-terminal) (Homo sapiens, UniProt Q15418)
# T14 construct: RSK1(Kin.Dom.2-C-terminal); purchased Ambit Kinomescan (contract screening)
# T14 sequence (Q15418 418-675 limits assumed): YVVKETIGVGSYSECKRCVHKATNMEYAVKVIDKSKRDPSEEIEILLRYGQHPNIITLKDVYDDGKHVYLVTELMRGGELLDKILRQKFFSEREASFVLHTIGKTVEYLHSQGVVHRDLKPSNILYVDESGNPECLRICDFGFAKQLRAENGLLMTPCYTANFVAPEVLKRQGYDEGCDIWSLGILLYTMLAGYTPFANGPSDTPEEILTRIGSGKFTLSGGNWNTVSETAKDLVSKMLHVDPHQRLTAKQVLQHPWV
# In short: as §1
# PIP5K1C = PIP5K1C (Homo sapiens, UniProt O60331); conditions: 1 μM
# In short: as §1
# PFPK5(P.falciparum) = target: T15, PFPK5(P.falciparum) (Plasmodium falciparum, UniProt P61075)
# T15 construct: DNA tag (qPCR read-out)
# In short: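 Compound displacement of DNA-tagged kinase from immobilized active-site ligand; qPCR of tag as read-out.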
# TYRO3 = target: T16, TYRO3 (Homo sapiens, UniProt Q06418)
# T16 construct: purchased Ambit Kinomescan (contract screening service)
# In short: as §1
# RIPK1 = target: T17, RIPK1 (Homo sapiens, UniProt Q13546)
# T17 construct: DNA tag (qPCR read-out)
# In short: as §1
# DYRK2 = target: T18, DYRK2 (Homo sapiens, UniProt Q92630)
# T18 construct: DNA tag (qPCR read-out); purchased Ambit Kinomescan
# In short: as §1
# ROS1 = target: T19, ROS1 (Homo sapiens, UniProt P08922)
# T19 construct: DNA tag (qPCR read-out)
# In short: as §1
# FER = target: T20, FER (Homo sapiens, UniProt P16591)
# T20 construct: purchased Ambit Kinomescan (contract panel, KINOMEscan Max)
# In short: as §1
# VEGFR2 = target: T21, VEGFR2 (Homo sapiens, UniProt P35968)
# T21 construct: purchased Ambit Kinomescan (contract screening)
# In short: as §1
# [4] = target: ABL1(T315I)-nonphosphorylated (Homo sapiens, UniProt P00519, T315I)
# In short: as §1
# ACVR2B = target: T22, ACVR2B (Homo sapiens, UniProt Q13705); conditions: 1 μM
# T22 construct: DNA tag (qPCR label); purchased Ambit Kinomescan (contract screening)
# In short: as §1
smiles,measurement,setting,value
"NCCCNc1nc2c(Br)c(Br)c(Br)c(Br)c2[nH]1 [Compound 11, N-(3-aminopropyl)-4,5,6,7-tetrabromo-1H-benzo[d]imidazol-2-amine]",remaining binding at 1 µM,AKT2,99%
same,remaining binding at 1 µM,TGFBR2,100%
same,remaining binding at 1 µM,MEK2,100%
same,% binding,IRAK4,100%
same,% binding,MAP4K3,85%
same,remaining binding at 1 µM,SRMS,100%
same,remaining binding at 1 µM,LRRK2(G2019S),70%
same,% binding,[1],100%
same,remaining binding at 1 µM,LRRK2,94%
same,remaining binding at 1 µM,PRP4,84%
same,remaining binding at 1 µM,PIP5K1A,75%
same,remaining binding at 1 µM,AURKB,94%
same,remaining binding at 1 µM,FGFR4,84%
same,% binding,BMPR2,99%
same,remaining binding at 1 µM,MST1R,100%
same,remaining binding at 1 µM,BRSK1,100%
same,remaining binding at 1 µM,CAMK2A,96%
same,remaining binding at 1 µM,[2],100%
same,remaining binding at 1 µM,FLT3(N841I),81%
same,remaining binding at 1 µM,CDK7,27%
same,remaining binding at 1 µM,BRK,100%
same,% binding,MET(M1250T),56%
same,remaining binding at 1 µM,[3],96%
same,% binding,PIP5K1C,95%
same,remaining binding at 1 µM,PFPK5(P.falciparum),100%
same,remaining binding at 1 µM,TYRO3,100%
same,remaining binding at 1 µM,RIPK1,100%
same,remaining binding at 1 µM,DYRK2,4.5%
same,remaining binding at 1 µM,ROS1,100%
same,remaining binding at 1 µM,FER,100%
same,remaining binding at 1 µM,VEGFR2,96%
same,remaining binding at 1 µM,[4],100%
same,% binding,ACVR2B,100%
